Measurements from US9238626B2 (priority 2012, dated 2016).
Structures can show the parent of a compound that is named as a salt.

Tests used:
[1] = tested on: hippocampal slices treated with Aβ oligomers; assay: Synaptic protein levels of hippocampal slices in the presence of Aβ oligomers (western blot); type: cell-based, C57bl6 mice; settings: co-treatment with Aβ oligomers, 1 h
Experimental: The hippocampus of treated or control transgenic mice were dissected on ice and immediately frozen at −150° C. or processed. Briefly, hippocampal tissue were homogenized in RIPA buffer (50 mM Tris-Cl, pH 7.5, 150 mM NaCl, 1% NP-40, 0.5% sodium deoxycholate, and 1% SDS) supplemented with a protease inhibitor cocktail (Sigma-Aldrich P8340) and phosphatase inhibitors (50 mM NaF, 1 mM Na3VO4 and 30 μM Na4P207) using a Potter homogenizator and then passed sequentially through different caliber syringes. Protein samples were centrifuged at 14000 rpm at 4° C. twice for 10 min. Protein concentration was determined using the BCA Protein Assay Kit (Pierce Biotechnology, Rockford, Ill.). 20 and 40 micrograms of hippocampal samples were resolved by 10% SDS-PAGE, transferred to a PVDF membrane. The reactions were followed by incubation with primary antibodies, secondary antibodies anti-mouse, anti-goat or anti-rabbit IgG peroxidase conjugated (Pierce) and developed using an ECL kit (Western Lightning Plus ECL, Perkin Elmer).
In slices co-treated with (−)-(Ib) (FIG. 4A), the neuroprotective effect of the compound was observed.

APP-PS1 mice [2] = assay: Electrophysiology (LTP) in hippocampal slices from treated APP-PS1 mice; type: in vivo, mouse; settings: for LTP magnitude at 60 min: compared with untreated brain slices; for LTP generation (in words): slices from treated APP-PS1 mice
APP-PS1 mice [3] = assay: Neuroinflammation (astrogliosis, anti-GFAP immunostaining) in APP-PS1 mice; type: in vivo, mouse
[4] = tested on: human recombinant AChE-induced Aβ1-40 aggregation; assay: AChE-induced Aβ1-40 aggregation inhibition assay (thioflavin T); settings: inhibitor 100 μM
Experimental: Aβ1-40, supplied as trifluoroacetate salt, was purchased from Bachem AG (Germany). Aβ1-40 (2 mg mL^−1) was dissolved in HFIP, lyophilized, and then resolubilized in DMSO to get a 2.3 mM Aβ1-40 solution. 1 mM Solutions of tested inhibitors were prepared by dissolution in MeOH.
Aliquots of 2 μL Aβ1-40 peptide were incubated for 24 h at room temperature in 0.215 M sodium phosphate buffer (pH 8.0) at a final concentration of 230 μM. […] The final volume of each vial was 20 μL. Each assay was run in duplicate. To quantify amyloid fibril formation, the thioflavin T fluorescence method was then applied (cf. H. Naiki et al., “Kinetic Analysis of Amyloid Fibril Polymerization in Vitro”, Lab. Invest. 1991, vol. 65, pp. 104-110). The fluorescence intensities due to β-sheet conformation were monitored for 300 s at λem=490 nm (λexc=446 nm). The percent inhibition of the AChE-induced aggregation due to the presence of the tested compound was calculated by the following expression: 100−(IFi/IFo×100) where IFi and IFe are the fluorescence intensities obtained for Aβ plus AChE in the presence and in the absence of inhibitor, respectively, minus the fluorescence intensities due to the respective blanks.

[5] = 7-month-old APP-PS1 mice, FIG. 9A
[6] = 11-month-old APP-PS1 mice, FIG. 9B

SMILES	GluA2 protein level [1]	PSD95 protein level [1]	VGlut1 protein level [1]	synaptophysin (SYP) protein level [1]	LTP magnitude at 60 min (APP-PS1 mice [2]) [%]	LTP generation (in words) (APP-PS1 mice [2])	area occupied by hyper-reactive astrocytes (GFAP), inflammatory response (APP-PS1 mice [3]; [5])	area occupied by hyper-reactive astrocytes (GFAP), inflammatory response (APP-PS1 mice [3]; [6])	AChE-induced Aβ1-40 aggregation (%) [4] [%]	SYN protein level [1]
CC1=C[C@@H]2Cc3nc4cc(Cl)ccc4c(NCCCCCCCCCNC(=O)c4cc(O)c5c(c4)C(=O)c4cccc(O)c4C5=O)c3[C@H](C1)C2 [(−)-(Ib)•HCl, (−)-(7S,11S)—N-{9-[(3-chloro-6,7,10,11-tetrahydro-9-methyl-7,11-methanocycloocta[b]quinolin-12-yl)amino]nonyl}-9,10-dihydro-4,5-dihydroxy-9,10-dioxoanthracene-2-carboxamide]	evident effect at 10 and 100 μM	evident effect at 10 and 100 μM	increment for every concentration	no effects were observed	150	able to generate LTP	decrease in the inflammatory response	decrease in the inflammatory response	38.1 ± 0.7	
CC1=C[C@H]2Cc3nc4cc(Cl)ccc4c(NCCCCCCCCCNC(=O)c4cc(O)c5c(c4)C(=O)c4cccc(O)c4C5=O)c3[C@@H](C1)C2 [(+)-(Ib)•HCl, (+)-(7R,11R)—N-{9-[(3-chloro-6,7,10,11-tetrahydro-9-methyl-7,11-methanocycloocta[b]quinolin-12-yl)amino]nonyl}-9,10-dihydro-4,5-dihydroxy-9,10-dioxoanthracene-2-carboxamide]	increased levels of total protein with every concentration used	increased levels of total protein with every concentration used	no changes	no changes	150	able to generate LTP	decrease in the inflammatory response	decrease in the inflammatory response	36.9 ± 3.4	increased levels of total protein with every concentration used
